Source: publication PMC5117811 (Nature chemical biology, 2016)

Assays:
MYC = assay: Immunoblot for MYC in MV4; format: cell-based, human; conditions: MV4;11 cells
BRD4 = BRD4 (Homo sapiens, UniProt O60885); assay: Immunoblot for BRD4 protein level in MV4; format: cell-based; conditions: MV4;11 cells
BRD4(1) [1] = target: T1, BRD4(1) (Homo sapiens, UniProt O60885); assay: BROMOscan
BRD4(1,2) = BRD4(1,2) (Homo sapiens, UniProt O60885); assay: BROMOscan
HEXIM1 = assay: Immunoblot for HEXIM1 in MV4; format: cell-based, human; conditions: MV4;11 cells, 10 nM, later time points (4–24 hours)
BRD4(2) = BRD4(2) (Homo sapiens, UniProt O60885); assay: BROMOscan
[2] = target: BRD4 (full-length, short-iso.) (Homo sapiens, UniProt O60885); assay: BROMOscan
[3] = Plasma pharmacokinetic analyses in CD1 mice; conditions: 50 mg/kg intraperitoneally
BRD4(1) [4] = target: T1, BRD4(1); assay: BRD4; format: binding; conditions: BRD4(1) AlphaScreen, compared to JQ1

SMILES: COC(=O)C[C@@H]1N=C(c2ccc(Cl)cc2)c2c(sc(C(=O)NCCOCCNC(=O)C[C@@H]3N=C(c4ccc(Cl)cc4)c4c(sc(C)c4C)-n4c(C)nnc43)c2C)-n2c(C)nnc21 [(6S+2S)-PEG1, Methyl 2-((S)-4-(4-chlorophenyl)-2-((2-(2-(2-((S)-4-(4-chlorophenyl)-2,3,9-trimethyl-6H-thieno[3,2-f][1,2,4]triazolo[4,3-a][1,4]diazepin-6-yl)acetamido)ethoxy)ethyl)carbamoyl)-3,9-dimethyl-6H-thieno[3,2-f][1,2,4]triazolo[4,3-a][1,4]diazepin-6-yl)acetate]
- time of maximum effect on MYC (MYC; 10 nM): 2 h
- lowest concentration at which MYC was downregulated (MYC; two hours of treatment): 10 nM
- effect on BRD4 protein stability (degradation) (BRD4): No effect on protein stability
- displacement of phage expressing BRD4(1) (BRD4(1) [1]): picomolar
- displacement of phage expressing tandem bromodomain construct BRD4(1,2) (BRD4(1,2)): picomolar
- HEXIM1 expression (HEXIM1): upregulation
- displacement of phage expressing BRD4(2) (BRD4(2)): picomolar
- displacement of phage expressing full length protein BRD4(full) [2]: picomolar

SMILES: COC(=O)C[C@@H]1N=C(c2ccc(Cl)cc2)c2c(sc(C(=O)NCCNC(=O)C[C@@H]3N=C(c4ccc(Cl)cc4)c4c(sc(C)c4C)-n4c(C)nnc43)c2C)-n2c(C)nnc21 [(6S+2S)-PEG0, Methyl 2-((S)-4-(4-chlorophenyl)-2-((2-(2-((S)-4-(4-chlorophenyl)-2,3,9-trimethyl-6H-thieno[3,2-f][1,2,4]triazolo[4,3-a][1,4]diazepin-6-yl)acetamido)ethyl)carbamoyl)-3,9-dimethyl-6H-thieno[3,2-f][1,2,4]triazolo[4,3-a][1,4]diazepin-6-yl)acetate]
- PK properties [3]: comparable PK properties to MT1

SMILES: COC(=O)C[C@@H]1N=C(c2ccc(Cl)cc2)c2c(sc(C(=O)NCCOCCNC(=O)c3sc4c(c3C)C(c3ccc(Cl)cc3)=N[C@@H](CC(=O)OC)c3nnc(C)n3-4)c2C)-n2c(C)nnc21 [(2S+2S)-PEG1, Dimethyl 2,2'-((6S,6'S)-(((oxybis(ethane-2,1-diyl))bis(azanediyl))bis(carbonyl))bis(4-(4-chlorophenyl)-3,9-dimethyl-6H-thieno[3,2-f][1,2,4]triazolo[4,3-a][1,4]diazepine-2,6-diyl))diacetate]
- increase in biochemical potency (BRD4(1) [4]): 20 fold
